Laboratory results: patent publication US8163909B2, “Substituted hydroxyethyl amine compounds as beta-secretase modulators and methods of use” (Amgen Inc., priority 2007, dated 2012)
Like-named read-outs stand apart in the source and are kept apart here.

How the values were obtained:
[1] = target: Beta Secretase enzyme (BACE) (Homo sapiens, UniProt P56817); assay: In vitro enzymatic BACE FRET (fluorescence resonance energy transfer) assay; type: biochemical;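 also: fluorescence read after 1 h with 50 nM quenched peptide substrate spanning the BACE cleavage site, in pH 4.2 acetate buffer containing 10% DMSO and nonionic detergent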
Sequence of Beta Secretase enzyme (BACE) (P56817 46-501): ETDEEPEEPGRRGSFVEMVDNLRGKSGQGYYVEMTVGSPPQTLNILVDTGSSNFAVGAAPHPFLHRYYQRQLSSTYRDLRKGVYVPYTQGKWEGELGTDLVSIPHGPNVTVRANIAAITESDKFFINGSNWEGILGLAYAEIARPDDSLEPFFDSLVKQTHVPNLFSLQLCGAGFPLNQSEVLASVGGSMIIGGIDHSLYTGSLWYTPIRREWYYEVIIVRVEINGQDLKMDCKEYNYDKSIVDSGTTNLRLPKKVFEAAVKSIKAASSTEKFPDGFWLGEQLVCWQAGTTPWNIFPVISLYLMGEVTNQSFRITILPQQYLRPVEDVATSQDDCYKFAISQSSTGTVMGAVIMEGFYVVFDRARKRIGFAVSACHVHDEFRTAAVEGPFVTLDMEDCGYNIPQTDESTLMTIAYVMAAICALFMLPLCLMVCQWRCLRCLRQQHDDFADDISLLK

[2] = system: Aβ40 in conditioned medium of cells stably expressing Amyloid Precursor Protein (APP); assay: In vitro BACE cell-based assay (Aβ40 in conditioned medium, sandwich ELISA); conditions: Homo sapiens;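 also: compounds added as a dilution series, secreted peptide quantified by europium time-resolved fluorescence readout, potency fitted from percent of control versus compound concentration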
CYP3A4 (CYP3A) = CYP3A4 (CYP3A) (Homo sapiens, UniProt P08684); assay: in vitro; conditions: microsomes, pH 7.4;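 also: inhibition of CYP3A-mediated 1-hydroxymidazolam formation after 10 min incubation with NADPH, quantified by HPLC MS relative to metabolite produced without test compound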
Sequence of CYP3A4 (CYP3A) (P08684 2-503): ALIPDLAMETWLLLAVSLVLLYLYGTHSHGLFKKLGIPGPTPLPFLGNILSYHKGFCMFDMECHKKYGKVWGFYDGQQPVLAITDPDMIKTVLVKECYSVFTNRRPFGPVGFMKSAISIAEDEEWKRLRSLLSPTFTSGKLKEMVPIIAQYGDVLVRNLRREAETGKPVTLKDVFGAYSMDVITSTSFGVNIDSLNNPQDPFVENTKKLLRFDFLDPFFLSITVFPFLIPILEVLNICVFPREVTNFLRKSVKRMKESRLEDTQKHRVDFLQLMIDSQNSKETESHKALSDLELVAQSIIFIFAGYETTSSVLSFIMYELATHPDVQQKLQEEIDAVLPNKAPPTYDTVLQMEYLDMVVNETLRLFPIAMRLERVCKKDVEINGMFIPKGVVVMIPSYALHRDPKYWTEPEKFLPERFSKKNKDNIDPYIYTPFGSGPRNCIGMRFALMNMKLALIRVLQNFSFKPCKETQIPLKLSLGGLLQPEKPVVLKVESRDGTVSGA

[3] = Microsomal stability assay, rat liver microsomes;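 also: rat liver microsomes (0.25 mg/mL) with about 1 µM compound plus 1 mM NADPH, pH 7.4, 37 °C for 30 min, parent left measured by LC-MS/MS against 0 min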
[4] = Microsomal stability assay, human liver microsomes;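 also: pooled human liver microsomes at 0.25 mg/mL with 1 µM compound and NADPH at 37 °C, pH 7.4, for 30 min, unchanged parent quantified by LC-MS/MS against the 0 min sample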
CYP2D6 = CYP2D6 (Homo sapiens, UniProt P10635); assay: CYP2D6 inhibition assay (bufuralol, pooled human liver microsomes)
Sequence of CYP2D6 (P10635 whole entry): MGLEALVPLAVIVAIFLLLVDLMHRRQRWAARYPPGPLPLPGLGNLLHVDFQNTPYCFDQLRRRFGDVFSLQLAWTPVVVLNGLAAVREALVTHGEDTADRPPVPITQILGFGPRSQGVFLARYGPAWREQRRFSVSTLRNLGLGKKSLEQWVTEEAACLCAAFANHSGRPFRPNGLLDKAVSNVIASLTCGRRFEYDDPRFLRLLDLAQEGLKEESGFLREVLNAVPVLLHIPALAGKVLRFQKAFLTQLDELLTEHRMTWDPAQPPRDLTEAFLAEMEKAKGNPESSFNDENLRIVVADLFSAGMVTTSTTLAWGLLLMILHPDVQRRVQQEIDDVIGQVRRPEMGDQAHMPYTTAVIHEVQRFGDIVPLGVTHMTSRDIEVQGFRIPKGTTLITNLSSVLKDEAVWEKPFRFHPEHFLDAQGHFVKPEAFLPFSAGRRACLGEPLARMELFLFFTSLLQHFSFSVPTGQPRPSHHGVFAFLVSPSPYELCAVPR

[5] = read-out: BACE1 FRET assay (IC50)
[6] = HEK293, HEK cells, read-out: HEK cell assay (IC50)
[7] = BACE enzyme assay IC50, read-out: BACE1 FRET assay
[8] = HEK293, HEK cell-based assay IC50, read-out: HEK cell assay
[9] = 2D6 IC50 (uM), CYP2D6 inhibition
[10] = 2D6 IC50 (uM), CYP enzyme inhibition
[11] = BACE enzyme assay, IC50's in uM, read-out: BACE1 FRET assay
[12] = HEK293, cell-based assay, HEK cells, IC50's in uM, read-out: HEK cell assay
[13] = 2D6 IC50, CYP enzyme inhibition
[14] = Table 2, read-out: BACE1 FRET assay
[15] = HEK293, Table 2, HEK cells, read-out: HEK cell assay
[16] = HEK293, HEK cell-based assay, IC50's in uM, read-out: HEK cell assay

Row | SMILES | IC50 (CYP3A4 (CYP3A)) [nM] | RLM ([3]; rat liver microsomes) [µL/min/mg] | HLM ([4]; human liver microsomes) [µL/min/mg] | RLM ([3]; rat liver microsomal data) [µL/min/mg] | IC50 (CYP2D6; [13]) [µM] | HLM ([4]; human liver microsomal data) [µL/min/mg] | also measured
1 | CC(C)(C)Cc1cnc2c(c1)[C@@H](NC[C@@H](O)[C@H](Cc1ccc(F)cc1)NC(=O)COC(F)F)CC1(CCC1)O2 [compound 647] | 400 | 269 | 303 |  |  |  | IC50 [1, 5]: 0.008 µM; IC50 [2, 6]: 0.039 µM; IC50 (CYP2D6; 2D6 IC50, CYP2D6 inhibition): 2.7 µM
2 | CO[C@H](C)C(=O)N[C@@H](Cc1cc(F)cc(-c2nccs2)c1)[C@H](O)CN[C@H]1CC2(CCC2)Oc2c1cc(CC(C)C)nc2Cl [compound 752] | 100 | 137 | 166 |  |  |  | IC50 [1, 7]: 0.009 µM; IC50 [2, 8]: 0.067 µM; IC50 (CYP2D6; [9]): 1.3 µM
3 | COCC(=O)N[C@@H](Cc1cccc(F)c1)[C@H](O)CN[C@H]1CC2(CCC2)Oc2c1cc(C=C(C)C)cc2-n1ccnc1 [compound 589] | 200 | 217 | 27 |  |  |  | IC50 [1, 5]: 0.257 µM; IC50 [2, 6]: 0.105 µM; IC50 (CYP2D6; 2D6 IC50, CYP2D6 inhibition): 0.2 µM
4 | CC(=O)N[C@@H](Cc1ccc(F)cc1)[C@H](O)CN[C@H]1CC2(CCC2)Oc2c1cc(CC(C)(C)C)nc2Nc1ccccc1 [compound 610] | ≥ 27000 | 213 | 102 |  |  |  | IC50 [1, 5]: 0.199 µM; IC50 [2, 6]: > 10 µM; IC50 (CYP2D6; 2D6 IC50, CYP2D6 inhibition): ≥ 27 µM
5 | COCC(=O)N[C@@H](Cc1cccc(F)c1)[C@H](O)CN[C@H]1CC2(CCC2)Oc2c(-c3ccncc3)cc(CC(C)(C)Cl)cc21 [compound 536] | ≥ 27000 |  |  |  |  |  | IC50 ([1]; BACE enzyme assay, read-out: BACE1 FRET assay): 0.019 µM; IC50 ([2]; HEK293, HEK cells, read-out: HEK cell assay): 0.011 µM; IC50 (CYP2D6; [10]): ≥ 27 µM
6 | C#Cc1ccc(C[C@H](NC(=O)[C@@H](C)OC)[C@H](O)CN[C@H]2CC3(CCC3)Oc3ncc(CC(C)(C)C)cc32)cc1 [compound 884] | 100 |  |  | 55 | 3.8 |  | IC50 [1, 11]: 0.251 µM; IC50 [2, 12]: 0.097 µM
7 | COCC(=O)N[C@@H](Cc1ccc2c(c1)OCO2)[C@@H](CN[C@H]1CC2(CCC2)Oc2ncc([C@H](F)C(C)(C)C)cc21)OC [compound 447] | 14000 |  |  |  | 14 |  | IC50 [1, 14]: 2.64 µM; IC50 [2, 15]: 3.99 µM
8 | CCCc1cnc2c(c1)[C@@H](NC[C@H](O)[C@@H](Cc1cc(F)cc(-c3nccs3)c1)NC(=O)[C@@H](C)OC)CC1(CCC1)O2 [compound 815] | 200 |  |  | 276 |  | 204 | IC50 (CYP2D6; [10]): 0.6 µM
9 | COCC(=O)N[C@@H](Cc1ccc(F)cc1)[C@H](O)CN[C@@H]1CC2(CCC2)Oc2c1cc(CC(C)(C)C)nc2-n1ccnc1 [compound 449] | 100 |  |  | 163 | 0.8 |  | IC50 [1, 14]: 2.9 µM; IC50 [2, 15]: 2.97 µM
10 | CC(C)Cc1cnc2c(c1)[C@@H](NC[C@H](O)[C@@H](Cc1cccc(-c3nccs3)c1)NC(=O)[C@@H]1CCCO1)CC1(CCC1)O2 [compound 796] | 200 |  |  | 58 |  | 126 | IC50 [2, 16]: 0.663 µM; IC50 (CYP2D6; [10]): 0.6 µM
11 | CO[C@H](C)C(=O)N[C@H](Cc1cc(F)cc(-c2nccs2)c1)[C@@H](O)CN[C@H]1CC2(CCC2)Oc2ncc(Br)cc21 [compound 821] | 300 |  |  | 243 |  | 162 | IC50 [2, 16]: 0.558 µM; IC50 (CYP2D6; [10]): 0.5 µM
12 | COCC(=O)N[C@@H](Cc1ccc(F)cc1)[C@H](O)CN[C@H]1CC2(CCNC2)Oc2cnc(CC(C)(C)C)cc21 (stereo partly shown) [compound 696] | 2900 | 44 | 32 |  |  |  | IC50 [2, 8]: 0.778 µM; IC50 (CYP2D6; [9]): ≥ 27 µM
13 | COCC(=O)N[C@@H](Cc1ccc(F)cc1)[C@H](O)CN[C@H]1CC2(CCC2)Oc2c1cc(CC(C)(C)C)nc2-n1ccnc1 [compound 448] | 100 |  |  | 79 | 1.8 |  | IC50 [1, 14]: 0.106 µM; IC50 [2, 15]: 0.153 µM
14 | CC1(C)C[C@H]1c1cnc2c(c1)[C@@H](NC[C@@H](O)[C@H](Cc1cccc(-c3nccs3)c1)NC(=O)[C@@H]1CCCO1)CC1(CCC1)O2 [compound 907] | 100 |  |  | 78 | 0.5 | 77 | 
15 | CO[C@H](C)C(=O)N[C@@H](Cc1cc(F)cc(F)c1)[C@H](O)CN[C@H]1CC2(CCC2)Oc2c1cc(CC(C)C)cc2-n1ccnc1 [compound 461] |  |  |  | 126 | 2.2 | 28 | IC50 [1, 14]: 0.026 µM; IC50 [2, 15]: 0.028 µM
16 | CCCc1cnc2c(c1)[C@@H](NC[C@H](O)[C@@H](Cc1cc(F)cc(-c3nccs3)c1)NC(=O)COC)CC1(CCC1)O2 [compound 833] | 300 |  |  | 189 |  | 219 | IC50 [2, 16]: 2.28 µM; IC50 (CYP2D6; [10]): 0.9 µM
17 | C#Cc1cccc(C[C@H](NC(=O)COC)[C@H](O)CN[C@H]2C[C@@]3(CCOC3)Oc3ncc(CC(C)(C)C)cc32)c1 [compound 869, N-((1S,2R)-3-(((3S,4′S)-6′-(2,2-dimethylpropyl)-3′,4,4′,5-tetrahydrospiro[furan-3,2′-pyrano[2,3-b]pyridin]-4′-yl)amino)-1-(3-ethynylbenzyl)-2-hydroxypropyl)-2-methoxyacetamide] |  |  |  | 55 | 9.5 | 21 | IC50 [1, 11]: 0.006 µM; IC50 [2, 12]: 0.01 µM
18 | CC(=O)N[C@@H](Cc1cc(F)cc(F)c1)[C@H](O)CN[C@H]1CC2(CCC2)Oc2c1cc(C1CC1)cc2-n1ccnc1 [compound 705] |  | 36 | 51 |  |  |  | IC50 [1, 7]: 0.032 µM; IC50 [2, 8]: 0.013 µM; IC50 (CYP2D6; [9]): 0.6 µM
19 | COC(OC)C(=O)N[C@@H](Cc1ccc(F)cc1)[C@H](O)CN[C@H]1CC2(CCC2)Oc2ncc(CC(C)(C)C)cc21 [compound 591] | 600 | 375 |  |  |  |  | IC50 [1, 5]: 0.01 µM; IC50 [2, 6]: 0.018 µM; IC50 (CYP2D6; 2D6 IC50, CYP2D6 inhibition): 10.3 µM
20 | COCC(=O)N[C@@H](Cc1ccccc1)[C@H](O)CN[C@H]1CC2(CCC2)Oc2c(-c3ccncc3)cc(CC(C)C)cc21 [compound 603] |  | 172 | 76 |  |  |  | IC50 [1, 5]: 0.01 µM; IC50 [2, 6]: 0.01 µM; IC50 (CYP2D6; 2D6 IC50, CYP2D6 inhibition): 2.7 µM
21 | CO[C@H](C)C(=O)N[C@@H](Cc1cccc(-c2nccs2)c1)[C@H](O)CN[C@H]1CC2(CCC2)Oc2ncc([C@@H]3CC3(C)C)cc21 [compound 905] | 200 |  |  | 71 | 0.9 | 60 | 
22 | CC(C)(C)Cc1cnc2c(c1)[C@@H](NC[C@@H](O)[C@H](Cc1ccc(F)cc1)NC(=O)[C@@H]1CN(Cc3cncs3)CCO1)CC1(CCC1)O2 [compound 788] |  |  |  | 157 |  | 267 | IC50 [1, 11]: 0.016 µM; IC50 [2, 16]: 0.013 µM; IC50 (CYP2D6; [10]): 0.6 µM
23 | CC(C)(C)Cc1cnc2c(c1)[C@@H](NC[C@@H](O)[C@H](Cc1cccc(C#N)c1)NC(=O)c1ncccc1F)CC1(CC(F)(F)C1)O2 [compound 473] | 600 |  |  | 775 | 2.4 |  | IC50 [1, 14]: 0.009 µM; IC50 [2, 15]: 0.063 µM
24 | CO[C@H](C)C(=O)N[C@@H](Cc1cc(F)cc(F)c1)[C@H](O)CN[C@H]1CC2(CCC2)Oc2c(-c3ccncc3)cc(CC(C)(C)F)cc21 [compound 590] |  | 105 | 60 |  |  |  | IC50 [1, 5]: 0.024 µM; IC50 [2, 6]: 0.007 µM; IC50 (CYP2D6; 2D6 IC50, CYP2D6 inhibition): 0.6 µM
25 | C#Cc1cccc(C[C@H](NC(=O)[C@@H]2CCCO2)[C@H](O)CN[C@H]2CC3(CCC3)Oc3ncc(CC(C)(C)C)cc32)c1F [compound 913] |  |  |  | 76 | 7.1 | 41 | IC50 [1, 11]: 0.021 µM; IC50 [2, 12]: 0.063 µM
26 | CC(=O)N[C@@H](Cc1cc(F)cc(F)c1)[C@H](O)CN[C@H]1CC2(CCC2)Oc2c1cc(CC(C)(C)C)nc2Nc1ccccc1 [compound 598] | 6900 | 102 |  |  |  |  | IC50 [1, 5]: 0.023 µM; IC50 [2, 6]: 0.26 µM; IC50 (CYP2D6; 2D6 IC50, CYP2D6 inhibition): ≥ 27 µM
27 | CC1(C)C[C@H]1c1cnc2c(c1)[C@@H](NC[C@@H](O)[C@H](Cc1cccc(-c3nccs3)c1)NC(=O)[C@H]1CCCO1)CC1(CCC1)O2 [compound 906] | 100 |  |  | 63 | 0.4 | 94 | 
28 | C#Cc1cc(C[C@H](NC(=O)CC)[C@H](O)CN[C@H]2CC3(CCC3)Oc3ncc(CC(C)(C)C)cc32)ccc1F [compound 848] |  |  |  | 60 | 0.9 | 36 | IC50 [1, 11]: 0.005 µM; IC50 [2, 12]: 0.019 µM
29 | COCC(=O)N[C@@H](Cc1cc(F)cc(-c2nccs2)c1)[C@H](O)CN[C@]1(C)CC2(CCC2)Oc2ncc(CC(C)(C)C)cc21 [compound 867] |  |  |  | 119 | 0.7 | 66 | IC50 [1, 11]: 1.21 µM; IC50 [2, 12]: 1.15 µM
30 | CO[C@H](C)C(=O)N[C@@H](Cc1cccc(C#N)c1)[C@H](O)CN[C@H]1CC2(CCC2)Oc2c(-c3ccncc3)cc(CC(C)C)cc21 [compound 620] |  | 105 | 48 |  |  |  | IC50 [1, 5]: 0.01 µM; IC50 [2, 6]: 0.005 µM; IC50 (CYP2D6; 2D6 IC50, CYP2D6 inhibition): 1.9 µM
